Source: PMC6273138, “Inhibitory Effects of Aschantin on Cytochrome P450 and Uridine 5′-diphospho-glucuronosyltransferase Enzyme Activities in Human Liver Microsomes” (Molecules, 2016)
Like-named read-outs stand apart in the source and are kept apart here.

Tests used:
CYP3A4 = CYP3A4 (Homo sapiens, UniProt P08684); test: Mechanism-based (time- and concentration-dependent) inactivation of CYP3A4 in human liver microsomes; type: in vitro ADME; conditions: CYP3A4-mediated midazolam 1′-hydroxylation
Sequence of CYP3A4 (P08684 2-503): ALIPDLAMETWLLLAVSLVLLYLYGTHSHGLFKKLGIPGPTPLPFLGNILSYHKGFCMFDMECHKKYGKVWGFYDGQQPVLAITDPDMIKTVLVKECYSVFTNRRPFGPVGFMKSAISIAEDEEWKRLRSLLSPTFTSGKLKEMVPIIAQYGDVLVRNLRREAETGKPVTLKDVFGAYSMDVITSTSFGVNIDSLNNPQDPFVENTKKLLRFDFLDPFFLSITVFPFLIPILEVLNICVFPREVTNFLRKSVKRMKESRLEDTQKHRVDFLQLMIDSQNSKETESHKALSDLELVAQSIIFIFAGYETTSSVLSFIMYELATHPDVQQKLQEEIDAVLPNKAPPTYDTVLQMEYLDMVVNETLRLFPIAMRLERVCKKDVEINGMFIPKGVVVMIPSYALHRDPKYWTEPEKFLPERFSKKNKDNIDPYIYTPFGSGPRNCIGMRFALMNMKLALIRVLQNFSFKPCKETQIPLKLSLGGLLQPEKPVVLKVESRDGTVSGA
Protocol: The microsomes (1 mg/mL) were pre-incubated with various concentrations of aschantin in 50 mM potassium phosphate buffer (pH 7.4) in the presence of NADPH. Aliquots (10 µL) of the incubated mixtures were withdrawn at 5, 10, 15, and 20 min after incubation commenced and added to other tubes containing the CYP substrates (2 µM amodiaquine for CYP2C8, 10 µM diclofenac for CYP2C9, 100 µM [S]-mephenytoin for CYP2C19, or 2 µM midazolam for CYP3A4), 1 mM NADPH, 50 mM potassium phosphate buffer (pH 7.4), and 10 mM MgCl2, in 90 µL reaction mixtures. […] Aliquots (5 µL) of the diluted supernatants were analyzed by LC-MS/MS, as described above.

UGT1A3 = target: T1, UGT1A3 (Homo sapiens, UniProt P35503); test: UGT1A3-catalyzed chenodeoxycholic acid 24-acyl-glucuronidation inhibition in pooled human liver microsomes; type: in vitro ADME
T1 construct: using pooled human liver microsomes incubated with the cocktail of UGT substrates; tissue Corning Life Sciences 452161; host or cells: pooled human liver microsomes
T1 sequence (P35503 29-534): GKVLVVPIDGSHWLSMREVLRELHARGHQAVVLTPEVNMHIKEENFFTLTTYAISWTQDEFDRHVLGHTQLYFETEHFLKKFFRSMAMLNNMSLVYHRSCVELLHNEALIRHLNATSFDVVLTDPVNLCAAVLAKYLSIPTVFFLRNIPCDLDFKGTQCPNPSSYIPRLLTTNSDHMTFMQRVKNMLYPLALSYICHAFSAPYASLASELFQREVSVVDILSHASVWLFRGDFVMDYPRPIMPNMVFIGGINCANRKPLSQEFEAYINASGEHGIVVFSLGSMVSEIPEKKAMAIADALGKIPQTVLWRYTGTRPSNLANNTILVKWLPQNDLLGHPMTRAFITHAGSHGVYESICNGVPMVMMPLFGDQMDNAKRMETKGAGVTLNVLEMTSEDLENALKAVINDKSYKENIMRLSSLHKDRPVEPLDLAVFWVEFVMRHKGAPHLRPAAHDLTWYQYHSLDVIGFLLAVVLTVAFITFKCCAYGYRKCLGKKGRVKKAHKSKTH
Protocol: The extents of aschantin on UGT1A1, UGT1A3, UGT1A4, UGT1A6, UGT1A9, and UGT2B7 were evaluated by LC-MS/MS, using pooled human liver microsomes incubated with the cocktail of UGT substrates. The method was modified from that of Joo et al..
The metabolites formed from the six UGT cocktail substrates were simultaneously measured using the LC-MS/MS method. […] The mass spectrometer was equipped with an ESI source and was operated in both positive and negative ion modes. […] Each metabolite was quantified via SRM in the negative ion (chenodeoxycholic acid 24-acyl-β-glucuronide, 567.2 > 391.0; mycophenolic acid glucuronide, 495.2 > 318.9; propofol glucuronide, 353.3 > 177.1) and positive ion (SN-38 glucuronide, 569.0 > 393.0; trifluoperazine glucuronide, 584.2 > 408.1; N-acetylserotonin-β-D-glucuronide, 395.2 > 219.0; naloxone 3-β-D-glucuronide, 504.0 > 310.0; meloxicam, 352.0 > 115.1) modes.

CYP2A6 = target: T2, CYP2A6 (Homo sapiens, UniProt P11509); test: CYP2A6-catalyzed coumarin 7-hydroxylase inhibition in pooled human liver microsomes
T2 sequence (P11509 1-494): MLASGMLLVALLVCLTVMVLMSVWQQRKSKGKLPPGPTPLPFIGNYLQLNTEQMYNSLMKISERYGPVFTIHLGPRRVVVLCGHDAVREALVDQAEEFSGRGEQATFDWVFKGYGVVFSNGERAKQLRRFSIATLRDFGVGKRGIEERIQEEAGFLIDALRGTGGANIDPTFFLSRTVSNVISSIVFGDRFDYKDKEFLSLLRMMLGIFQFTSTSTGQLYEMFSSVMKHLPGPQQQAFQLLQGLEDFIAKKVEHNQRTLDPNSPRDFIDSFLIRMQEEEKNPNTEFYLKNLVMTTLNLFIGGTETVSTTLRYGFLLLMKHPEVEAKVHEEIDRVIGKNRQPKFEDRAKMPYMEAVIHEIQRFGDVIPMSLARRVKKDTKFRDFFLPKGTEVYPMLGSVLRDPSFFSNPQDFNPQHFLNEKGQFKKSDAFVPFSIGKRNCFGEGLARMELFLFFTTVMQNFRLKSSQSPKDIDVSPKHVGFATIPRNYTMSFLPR
Protocol: (§1) The degrees of inhibition (the IC50 values) of aschantin toward CYP1A2, CYP2A6, CYP2C8, CYP2C9, CYP2C19, CYP2D6, and CYP3A4 were evaluated using pooled human liver microsomes employing a cocktail of CYP substrates and liquid chromatography-tandem mass spectrometry (LC-MS/MS). […] After 3 min pre-incubation at 37 °C, the reactions were initiated by addition of NADPH and incubation proceeded for 15 min at 37 °C in a shaking water bath. The reaction was stopped by placing the tubes on ice and adding 100 µL amounts of ice-cold methanol containing internal standards (^13C2,^15N-acetaminophen for acetaminophen and N-desethylamodiaquine; d9-1′-hydroxybufuralol for 4′-hydroxydiclofenac; and 7-hydroxycoumarin, 4′-hydroxy-mephenytoin, 1′-hydroxybufuralol, and 1′-hydroxymidazolam). Then the incubation mixtures were centrifuged at 13,000× g for 4 min at 4 °C. All assays were performed in triplicate and the average values were used in calculations.
(§2) To this end, we employed a tandem mass spectrometer (TSQ Quantum Access, Thermo Scientific, San Jose, CA, USA) coupled to a Nanospace SI-2 LC system (Shiseido, Tokyo, Japan). The column and autosampler temperatures were 50 °C and 6 °C, respectively. The mass spectrometer was equipped with an electrospray ionization (ESI) source and was operated in positive ion mode. The ESI source settings for metabolite ionization were as follows: capillary voltage, 4200 V; vaporizer temperature, 350 °C; capillary temperature 330 °C; sheath gas pressure, 35 psi; and auxiliary gas pressure, 15 psi. […] Analytical data were processed using Xcalibur® software (Thermo Scientific).
(§3) The apparent kinetic inhibitory potentials (the Ki values) were estimated from the fitted curves using Enzyme Kinetics version 1.1 (Systat Software Inc.).

CYP2D6 = CYP2D6 (Homo sapiens, UniProt P10635); test: CYP2D6-catalyzed bufuralol 1′-hydroxylase inhibition in pooled human liver microsomes
Sequence of CYP2D6 (P10635 whole entry): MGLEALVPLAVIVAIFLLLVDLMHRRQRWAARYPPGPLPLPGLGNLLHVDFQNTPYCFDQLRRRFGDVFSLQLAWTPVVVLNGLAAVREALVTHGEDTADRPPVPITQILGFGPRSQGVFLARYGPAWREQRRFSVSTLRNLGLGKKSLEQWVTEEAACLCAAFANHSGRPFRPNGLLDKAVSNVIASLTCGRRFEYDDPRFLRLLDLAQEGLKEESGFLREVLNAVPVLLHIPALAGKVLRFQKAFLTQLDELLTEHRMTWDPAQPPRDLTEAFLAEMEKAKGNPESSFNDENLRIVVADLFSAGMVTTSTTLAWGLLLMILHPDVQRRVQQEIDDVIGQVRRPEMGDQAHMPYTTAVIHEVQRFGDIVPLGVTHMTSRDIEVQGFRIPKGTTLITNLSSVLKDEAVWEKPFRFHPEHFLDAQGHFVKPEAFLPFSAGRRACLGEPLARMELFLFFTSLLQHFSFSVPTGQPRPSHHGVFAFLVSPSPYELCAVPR
Protocol: as §1, §2

CYP2C8 = target: T3, CYP2C8 (Homo sapiens, UniProt P10632); test: CYP2C8-catalyzed amodiaquine N-de-ethylase inhibition in pooled human liver microsomes; conditions: for IC50: CYP2C8 amodiaquine N-de-ethylase, 2.0 µM amodiaquine
T3 sequence (P10632 1-490): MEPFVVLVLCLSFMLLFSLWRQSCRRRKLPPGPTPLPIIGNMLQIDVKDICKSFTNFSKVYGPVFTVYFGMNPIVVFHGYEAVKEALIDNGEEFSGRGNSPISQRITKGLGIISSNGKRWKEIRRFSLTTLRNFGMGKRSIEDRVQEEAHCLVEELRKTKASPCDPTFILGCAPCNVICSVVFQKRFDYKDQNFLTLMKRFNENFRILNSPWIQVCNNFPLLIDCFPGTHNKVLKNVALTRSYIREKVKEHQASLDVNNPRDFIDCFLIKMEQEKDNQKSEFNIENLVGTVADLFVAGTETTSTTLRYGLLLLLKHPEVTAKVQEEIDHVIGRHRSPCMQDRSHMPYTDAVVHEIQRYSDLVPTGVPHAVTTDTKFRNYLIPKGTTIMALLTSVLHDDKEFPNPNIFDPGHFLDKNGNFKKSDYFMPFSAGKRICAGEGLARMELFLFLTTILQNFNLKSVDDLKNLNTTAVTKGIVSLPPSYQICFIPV
Protocol: as §1, §2, §3

CYP2C19 = CYP2C19 (Homo sapiens, UniProt P33261); test: CYP2C19-catalyzed [S]-mephenytoin 4′-hydroxylase inhibition in pooled human liver microsomes; conditions: for IC50: CYP2C19 (S)-mephenytoin 4′-hydroxylase, 100 µM [S]-mephenytoin
Sequence of CYP2C19 (P33261 whole entry): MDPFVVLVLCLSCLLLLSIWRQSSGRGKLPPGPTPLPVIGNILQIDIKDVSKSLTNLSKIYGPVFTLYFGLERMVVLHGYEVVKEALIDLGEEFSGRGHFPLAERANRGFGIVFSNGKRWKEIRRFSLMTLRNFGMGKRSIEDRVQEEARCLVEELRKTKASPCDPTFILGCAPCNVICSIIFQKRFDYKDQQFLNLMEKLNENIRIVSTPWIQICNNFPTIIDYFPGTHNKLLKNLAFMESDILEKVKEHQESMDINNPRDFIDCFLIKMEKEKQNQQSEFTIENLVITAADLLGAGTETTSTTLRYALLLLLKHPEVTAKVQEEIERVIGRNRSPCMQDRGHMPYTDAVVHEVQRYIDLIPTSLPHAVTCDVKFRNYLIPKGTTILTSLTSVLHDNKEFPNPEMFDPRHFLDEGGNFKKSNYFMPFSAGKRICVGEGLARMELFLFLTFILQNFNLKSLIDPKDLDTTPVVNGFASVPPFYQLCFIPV
Protocol: as §1, §2, §3

[1] = aschantin at 100 µM, human liver microsomes
[2] = IC50 No Pre-incubation, pooled human liver microsomes, no pre-incubation
[3] = IC50 With Pre-incubation, 30 min pre-incubation with microsomes and NADPH

## COc1cc([C@H]2OC[C@H]3[C@@H]2CO[C@@H]3c2ccc3c(c2)OCO3)cc(OC)c1OC [Aschantin]
CYP3A4; read-out: Ki (apparent)
  Ki: 12.6 µM
CYP3A4; pH 7.4, probe midazolam (2 µM)
  kinact: 0.00103 s⁻¹
UGT1A3; UGT1A3-catalyzed chenodeoxycholic acid 24-acyl-glucuronidation, 2 µM chenodeoxycholic acid, pooled human liver microsomes
  IC50: > 200 µM
UGT1A3; aschantin at 200 µM, human liver microsomes
  inhibition of UGT1A3-catalyzed chenodeoxycholic acid 24-acyl-glucuronidation: not inhibited
CYP2A6
  IC50: > 100 µM
CYP2A6; [1]
  inhibition of CYP2A6-mediated coumarin 7-hydroxylation: negligibly inhibited
CYP2A6; read-out: IC50 With Pre-incubation, CYP2A6 coumarin 7-hydroxylase, 2.5 µM coumarin, 30 min pre-incubation with microsomes and NADPH
  IC50: > 100 µM
CYP2D6
  IC50: > 100 µM
CYP2D6; [1]
  inhibition of CYP2D6-mediated bufuralol 1′-hydroxylation: negligibly inhibited
CYP2D6; read-out: IC50 With Pre-incubation, CYP2D6 bufuralol 1′-hydroxylase, 5.0 µM bufuralol, 30 min pre-incubation with microsomes and NADPH
  IC50: > 100 µM
CYP2C8; [2]
  IC50: 27.8 µM
CYP2C8; [3]
  IC50: 5.3 µM
CYP2C8; human, pooled human liver microsomes, pH 7.4, probe amodiaquine (2.0 µM), N-de-ethylation
  IC50 shift at 0.5 h: > 2.5
CYP2C19; [2]
  IC50: 22.7 µM
CYP2C19; [3]
  IC50: 6.1 µM
CYP2C19; human, pooled human liver microsomes, pH 7.4, probe [S]-mephenytoin (100 µM), 4′-hydroxylation
  IC50 shift at 0.5 h: > 2.5
